From patent publication US9834571B2, “Compounds for inhibiting cell proliferation in EGFR-driven cancers” (ARIAD Pharmaceuticals, Inc., priority 2012, dated 2017)
Read-outs that look alike come from different tables or passages of the source.

Experiments:
[1] = test system: BaF3 cells expressing wildtype EGFR; assay: Antiproliferative activity (MTT) against control BaF3 cells expressing wildtype EGFR; format: cell-based; conditions: Mus musculus
Protocol: (§1) We also assessed the antiproliferative activity of compounds of Formula (I) against BaF3 cells expressing the target EGFR mutations or control (i.e., cell lines expressing wildtype EGFR). Assays were conducted using MTT.

[2] = molecular target: T1, BaF3 cells expressing the target EGFR mutations (Homo sapiens, UniProt P00533, T790M, cells depend on it, form not given); assay: Antiproliferative activity (MTT) against BaF3 cells expressing the target EGFR mutations; format: cell-based; conditions: BAF3 EGFR DEL T790M PURO POOL cells, read-out: IC50, BAF3 EGFR DEL T790M PURO POOL
T1 construct: IC50, BAF3 EGFR DEL T790M PURO POOL; other: BAF3 EGFR DEL T790M PURO POOL cells, MTT; other: BAF3 EGFR DEL T790M PURO POOL cells; MTT
T1 sequence (P00533 with tags, fused parts or gaps DEL746-750/T790M, form open): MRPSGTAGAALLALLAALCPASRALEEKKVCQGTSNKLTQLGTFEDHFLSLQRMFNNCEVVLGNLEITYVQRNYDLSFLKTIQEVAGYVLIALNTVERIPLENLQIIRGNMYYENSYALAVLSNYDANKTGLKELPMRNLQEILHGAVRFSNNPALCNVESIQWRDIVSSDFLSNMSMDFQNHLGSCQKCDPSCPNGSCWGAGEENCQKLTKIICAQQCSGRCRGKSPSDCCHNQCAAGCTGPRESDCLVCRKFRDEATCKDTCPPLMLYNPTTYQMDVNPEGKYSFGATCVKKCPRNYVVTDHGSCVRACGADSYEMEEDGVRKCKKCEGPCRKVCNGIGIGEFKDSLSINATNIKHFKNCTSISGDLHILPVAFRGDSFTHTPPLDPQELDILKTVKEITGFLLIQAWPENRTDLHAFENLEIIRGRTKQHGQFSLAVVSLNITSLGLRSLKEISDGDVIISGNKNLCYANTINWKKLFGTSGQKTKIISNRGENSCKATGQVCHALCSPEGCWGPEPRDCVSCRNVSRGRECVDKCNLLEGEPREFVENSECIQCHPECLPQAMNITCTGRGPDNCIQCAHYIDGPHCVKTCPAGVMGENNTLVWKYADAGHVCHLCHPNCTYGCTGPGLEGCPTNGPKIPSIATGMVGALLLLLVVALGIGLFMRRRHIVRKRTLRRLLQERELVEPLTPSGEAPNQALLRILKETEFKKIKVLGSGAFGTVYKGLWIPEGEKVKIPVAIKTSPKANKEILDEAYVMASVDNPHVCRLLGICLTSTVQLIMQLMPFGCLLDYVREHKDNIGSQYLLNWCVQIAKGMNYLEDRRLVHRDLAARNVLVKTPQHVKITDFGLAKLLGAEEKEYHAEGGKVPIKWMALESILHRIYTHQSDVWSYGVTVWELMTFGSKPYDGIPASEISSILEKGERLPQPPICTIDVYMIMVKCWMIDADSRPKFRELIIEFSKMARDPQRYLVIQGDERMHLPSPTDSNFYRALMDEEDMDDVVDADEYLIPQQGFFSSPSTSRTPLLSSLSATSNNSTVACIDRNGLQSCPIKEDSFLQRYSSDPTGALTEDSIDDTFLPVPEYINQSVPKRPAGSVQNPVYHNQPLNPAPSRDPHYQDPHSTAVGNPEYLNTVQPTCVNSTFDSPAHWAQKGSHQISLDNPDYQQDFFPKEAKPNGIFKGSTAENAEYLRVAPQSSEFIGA
Protocol: as §1

[3] = molecular target: T2, BaF3 cells expressing the target EGFR mutations (Homo sapiens, UniProt P00533, T790M/L858R, cells depend on it); assay: as above; format: cell-based; conditions: BAF3 EGFR L858R-T790M PURO POOL cells, read-out: IC50, BAF3 EGFR L858R-T790M PURO POOL
T2 construct: IC50, BAF3 EGFR L858R-T790M PURO POOL; other: BAF3 EGFR L858R-T790M PURO POOL cells, MTT; IC50, BAF3 EGFR L858R-T790M PURO POOL; other: BAF3 EGFR L858R-T790M PURO POOL cells; MTT
Protocol: as §1

[4] = molecular target: human EGFR (native sequence) (Homo sapiens, UniProt P00533); assay: Kinase inhibitory activity against human EGFR (native sequence); format: biochemical; conditions: 10 μM ATP, read-out: IC50 for kinase inhibition, EGFR
Sequence of human EGFR (native sequence) (P00533 25-1210): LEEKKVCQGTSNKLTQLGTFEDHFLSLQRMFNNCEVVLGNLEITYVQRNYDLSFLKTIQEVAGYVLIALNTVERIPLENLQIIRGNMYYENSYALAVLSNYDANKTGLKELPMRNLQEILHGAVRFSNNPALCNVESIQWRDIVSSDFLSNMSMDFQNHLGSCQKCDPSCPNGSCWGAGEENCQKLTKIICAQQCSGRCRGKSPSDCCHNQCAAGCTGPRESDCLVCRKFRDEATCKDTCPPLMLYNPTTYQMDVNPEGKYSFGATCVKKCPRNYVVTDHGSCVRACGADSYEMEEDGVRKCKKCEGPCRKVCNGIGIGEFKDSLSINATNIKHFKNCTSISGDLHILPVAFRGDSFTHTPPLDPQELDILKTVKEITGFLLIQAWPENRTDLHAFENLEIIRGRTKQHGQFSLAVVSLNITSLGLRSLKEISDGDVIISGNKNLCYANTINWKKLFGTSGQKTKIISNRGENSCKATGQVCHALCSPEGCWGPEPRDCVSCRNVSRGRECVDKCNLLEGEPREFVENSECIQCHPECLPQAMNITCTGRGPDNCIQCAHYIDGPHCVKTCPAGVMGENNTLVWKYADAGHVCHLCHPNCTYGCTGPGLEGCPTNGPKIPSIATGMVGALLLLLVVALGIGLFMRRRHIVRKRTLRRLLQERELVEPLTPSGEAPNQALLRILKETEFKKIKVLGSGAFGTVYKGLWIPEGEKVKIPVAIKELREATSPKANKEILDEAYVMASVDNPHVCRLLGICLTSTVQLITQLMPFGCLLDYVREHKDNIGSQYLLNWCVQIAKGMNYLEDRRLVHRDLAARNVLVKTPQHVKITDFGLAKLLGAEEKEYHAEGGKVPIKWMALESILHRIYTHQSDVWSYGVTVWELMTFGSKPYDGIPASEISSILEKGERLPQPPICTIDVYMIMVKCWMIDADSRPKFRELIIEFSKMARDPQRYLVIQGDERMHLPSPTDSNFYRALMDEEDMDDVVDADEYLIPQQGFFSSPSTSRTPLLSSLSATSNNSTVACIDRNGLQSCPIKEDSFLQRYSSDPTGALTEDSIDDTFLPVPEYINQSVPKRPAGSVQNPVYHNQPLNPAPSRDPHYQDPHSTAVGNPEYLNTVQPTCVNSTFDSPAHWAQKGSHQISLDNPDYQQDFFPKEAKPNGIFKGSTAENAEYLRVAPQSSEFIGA
Protocol: (§2) Kinase inhibitory activity of the compounds was measured against human EGFR (native sequence) and against EGFR bearing the L858R mution and the L858R/T790M double mutation (EGFR, L858R, and L858R/T790M, respectively in Table 1). Additional assays can be conducted with EGFR deletion mutants such as delE746-A750 with or without the additional T790M mutation. Assay conditions included 10 pt curves with 3 μM top concentration (singlicates) and 10 μM ATP.

[5] = molecular target: EGFR L858R (Homo sapiens, UniProt P00533, L858R); assay: Kinase inhibitory activity against EGFR bearing the L858R mutation; format: biochemical; conditions: 10 μM ATP, read-out: IC50 for kinase inhibition, EGFR L858R
Sequence of EGFR L858R (P00533 25-1210 L858R): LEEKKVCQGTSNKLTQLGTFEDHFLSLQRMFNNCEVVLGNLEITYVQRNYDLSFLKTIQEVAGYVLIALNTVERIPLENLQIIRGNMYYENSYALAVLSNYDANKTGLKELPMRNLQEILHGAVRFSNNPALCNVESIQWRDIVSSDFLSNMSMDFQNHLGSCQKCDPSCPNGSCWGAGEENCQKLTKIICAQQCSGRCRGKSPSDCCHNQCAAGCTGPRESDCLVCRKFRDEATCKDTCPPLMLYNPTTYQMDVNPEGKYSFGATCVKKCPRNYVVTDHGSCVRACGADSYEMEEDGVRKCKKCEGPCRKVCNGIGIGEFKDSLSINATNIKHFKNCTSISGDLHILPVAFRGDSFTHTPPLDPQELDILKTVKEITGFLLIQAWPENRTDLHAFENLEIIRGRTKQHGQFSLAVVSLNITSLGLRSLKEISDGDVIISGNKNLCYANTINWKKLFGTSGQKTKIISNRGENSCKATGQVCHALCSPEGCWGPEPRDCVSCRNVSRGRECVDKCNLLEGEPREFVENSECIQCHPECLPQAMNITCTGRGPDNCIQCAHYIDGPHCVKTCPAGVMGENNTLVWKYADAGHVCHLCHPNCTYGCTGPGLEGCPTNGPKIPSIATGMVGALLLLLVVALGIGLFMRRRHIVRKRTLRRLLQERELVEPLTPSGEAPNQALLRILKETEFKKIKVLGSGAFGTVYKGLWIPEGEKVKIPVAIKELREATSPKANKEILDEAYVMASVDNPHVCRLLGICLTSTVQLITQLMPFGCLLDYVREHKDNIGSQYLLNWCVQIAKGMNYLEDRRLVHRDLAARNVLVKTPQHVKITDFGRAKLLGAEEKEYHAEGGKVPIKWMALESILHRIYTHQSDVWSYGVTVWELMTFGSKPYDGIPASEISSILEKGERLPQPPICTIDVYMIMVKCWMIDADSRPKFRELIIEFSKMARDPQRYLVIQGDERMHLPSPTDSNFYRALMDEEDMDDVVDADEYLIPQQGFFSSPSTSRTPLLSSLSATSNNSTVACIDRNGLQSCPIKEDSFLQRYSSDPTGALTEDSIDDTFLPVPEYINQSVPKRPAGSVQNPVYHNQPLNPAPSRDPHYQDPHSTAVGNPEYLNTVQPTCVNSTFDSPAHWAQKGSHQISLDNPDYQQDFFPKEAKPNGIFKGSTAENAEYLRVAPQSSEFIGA
Protocol: as §2

[6] = molecular target: EGFR L858R/T790M (Homo sapiens, UniProt P00533, L858R/T790M); assay: Kinase inhibitory activity against EGFR bearing the L858R/T790M double mutation; format: biochemical; conditions: 10 μM ATP, read-out: IC50 for kinase inhibition, EGFR L858R T790M
Sequence of EGFR L858R/T790M (P00533 25-1210 T790M/L858R): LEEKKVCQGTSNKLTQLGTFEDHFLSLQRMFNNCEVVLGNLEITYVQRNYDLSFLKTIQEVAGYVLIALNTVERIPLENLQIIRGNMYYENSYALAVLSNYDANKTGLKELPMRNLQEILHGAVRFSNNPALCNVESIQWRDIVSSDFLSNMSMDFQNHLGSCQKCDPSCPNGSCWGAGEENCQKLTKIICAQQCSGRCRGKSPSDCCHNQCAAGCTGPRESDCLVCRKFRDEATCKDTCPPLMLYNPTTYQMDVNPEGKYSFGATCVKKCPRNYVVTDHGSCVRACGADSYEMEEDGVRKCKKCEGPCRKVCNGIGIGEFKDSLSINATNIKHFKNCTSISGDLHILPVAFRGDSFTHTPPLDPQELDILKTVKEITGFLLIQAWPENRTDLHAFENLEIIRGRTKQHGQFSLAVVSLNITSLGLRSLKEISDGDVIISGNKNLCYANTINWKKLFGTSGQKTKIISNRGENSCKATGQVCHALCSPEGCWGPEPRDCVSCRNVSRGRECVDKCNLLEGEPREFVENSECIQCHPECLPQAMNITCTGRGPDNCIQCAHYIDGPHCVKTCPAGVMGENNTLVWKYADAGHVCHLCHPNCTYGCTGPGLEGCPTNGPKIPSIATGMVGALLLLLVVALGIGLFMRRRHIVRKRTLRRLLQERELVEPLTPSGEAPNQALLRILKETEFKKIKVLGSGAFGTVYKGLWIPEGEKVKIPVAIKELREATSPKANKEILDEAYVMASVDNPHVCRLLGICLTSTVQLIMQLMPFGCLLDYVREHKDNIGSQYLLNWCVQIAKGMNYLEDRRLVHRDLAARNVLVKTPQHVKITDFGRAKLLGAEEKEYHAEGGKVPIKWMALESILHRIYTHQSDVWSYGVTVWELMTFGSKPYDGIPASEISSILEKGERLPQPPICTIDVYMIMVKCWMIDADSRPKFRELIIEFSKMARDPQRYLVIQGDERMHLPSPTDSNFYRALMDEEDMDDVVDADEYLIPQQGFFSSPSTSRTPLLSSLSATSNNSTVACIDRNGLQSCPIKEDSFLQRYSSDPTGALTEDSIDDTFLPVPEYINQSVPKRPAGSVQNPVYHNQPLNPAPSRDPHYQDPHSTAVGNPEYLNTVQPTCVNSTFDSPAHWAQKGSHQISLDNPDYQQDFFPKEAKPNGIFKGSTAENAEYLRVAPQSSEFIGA
Protocol: as §2

[7] = EGFR L858R/T790M double mutation
[8] = 10 pt curves, 3 μM top concentration

| GI50 [2] [µM] | GI50 [3] [µM] | IC50 ([4]; human EGFR native sequence) [µM] | IC50 ([5]; EGFR L858R) [µM] | IC50 [6, 7] [µM] | IC50 [4, 8] [µM] | IC50 [5, 8] [µM] | IC50 [6, 8] [µM] | Structure (SMILES) | IC50 ([1]; BAF3 PARENTAL cells (control)) [µM] | IC50 ([1]; BAF3 parental cells) [µM] |
| --- | --- | --- | --- | --- | --- | --- | --- | --- | --- | --- |
| 0.101 to 0.25 | 0.101 to 0.25 | 0.101 to 0.25 | < 0.05 | < 0.05 | – | – | – | C=CC(=O)Nc1cc(Nc2ncc(Cl)c(Nc3ccccc3P(C)(C)=O)n2)c(OC)cc1OCCCN1CCOCC1 [Example 5, N-(5-((5-chloro-4-((2-(dimethylphosphoryl)phenyl)amino)pyrimidin-2-yl)amino)-4-methoxy-2-(3-morpholinopropoxy)phenyl)acrylamide] | ≥ 0.25 | – |
| < 0.05 | < 0.05 | – | – | – | < 0.05 | < 0.05 | < 0.05 | C=CC(=O)Nc1cc(Nc2ncc(Cl)c(Nc3ccccc3P(C)(C)=O)n2)c(OC)cc1C#CCCN(C)C [Example 128, N-(5-((5-chloro-4-((2-(dimethylphosphoryl)phenyl)amino)pyrimidin-2-yl)amino)-2-(4-(dimethylamino)but-1-yn-1-yl)-4-methoxyphenyl)acrylamide] | – | ≥ 0.25 |
| < 0.05 | < 0.05 | < 0.05 | < 0.05 | < 0.05 | – | – | – | C=CC(=O)Nc1cc(Nc2ncc(Cl)c(Nc3ccccc3P(C)(C)=O)n2)c(OC)cc1OC(COC)CN1CCC1 (stereo not drawn) [Example 15, N-(2-((1-(azetidin-1-yl)-3-methoxypropan-2-yl)oxy)-5-((5-chloro-4-((2-(dimethylphosphoryl)phenyl)amino)pyrimidin-2-yl)amino)-4-methoxyphenyl)acrylamide] | ≥ 0.25 | – |
| < 0.05 | < 0.05 | – | – | – | < 0.05 | < 0.05 | < 0.05 | C=CC(=O)Nc1cc(Nc2ncc(Cl)c(Nc3ccccc3P(C)(C)=O)n2)c(Cl)cc1OC(COC)CN(C)C (stereo not drawn) [Example 145, N-(4-chloro-5-((5-chloro-4-((2-(dimethylphosphoryl)phenyl)amino)pyrimidin-2-yl)amino)-2-((1-(dimethylamino)-3-methoxypropan-2-yl)oxy)phenyl)acrylamide] | – | ≥ 0.25 |
| < 0.05 | 0.101 to 0.25 | – | – | – | < 0.05 | < 0.05 | < 0.05 | C=CC(=O)Nc1cc(Nc2ncc(Cl)c(Nc3ccccc3P(C)(C)=O)n2)c(OC)cc1C#CCN1CCN(C)CC1 [Example 159, N-(5-((5-chloro-4-((2-(dimethylphosphoryl)phenyl)amino)pyrimidin-2-yl)amino)-4-methoxy-2-(3-(4-methylpiperazin-1-yl)prop-1-yn-1-yl)phenyl)acrylamide] | – | ≥ 0.25 |
| < 0.05 | < 0.05 | < 0.05 | < 0.05 | < 0.05 | – | – | – | C=CC(=O)Nc1cc(Nc2ncc(Cl)c(Nc3ccccc3P(C)(C)=O)n2)c(OC)cc1O[C@H]1CCCN(C)C1 (single isomer, unassigned) [Example 16] | ≥ 0.25 | – |
| < 0.05 | < 0.05 | – | – | – | < 0.05 | < 0.05 | < 0.05 | C=CC(=O)Nc1cc(Nc2ncc(Cl)c(Nc3ccccc3P(C)(C)=O)n2)c(OC)cc1C#CCN(C)C1CCCC1 [Example 168, N-(5-((5-chloro-4-((2-(dimethylphosphoryl)phenyl)amino)pyrimidin-2-yl)amino)-2-(3-(cyclopentyl(methyl)amino)prop-1-yn-1-yl)-4-methoxyphenyl)acrylamide] | – | < 0.05 |

More lines, now with the values behind:

| Structure (SMILES) | GI50 [2] [µM] | GI50 [3] [µM] | IC50 ([4]; human EGFR native sequence) [µM] | IC50 ([5]; EGFR L858R) [µM] | IC50 [6, 7] [µM] | IC50 [4, 8] [µM] | IC50 [5, 8] [µM] | IC50 [6, 8] [µM] | IC50 ([1]; BAF3 PARENTAL cells (control)) [µM] | IC50 ([1]; BAF3 parental cells) [µM] |
| --- | --- | --- | --- | --- | --- | --- | --- | --- | --- | --- |
| C=CC(=O)Nc1cc(Nc2ncc(Cl)c(Nc3ccccc3P(C)(C)=O)n2)c(OC)cc1C#CCN(C(C)C)C(C)C [Example 158, N-(5-((5-chloro-4-((2-(dimethylphosphoryl)phenyl)amino)pyrimidin-2-yl)amino)-2-(3-(diisopropylamino)prop-1-yn-1-yl)-4-methoxyphenyl)acrylamide] | < 0.05 | < 0.05 | – | – | – | < 0.05 | < 0.05 | < 0.05 | – | ≥ 0.25 |
| Cc1ccc(NC(=O)CCl)cc1Nc1ncc(Cl)c(Nc2ccccc2P(C)(C)=O)n1 [Example 148, 2-chloro-N-(3-((5-chloro-4-((2-(dimethylphosphoryl)phenyl)amino)pyrimidin-2-yl)amino)-4-methylphenyl)acetamide] | < 0.05 | < 0.05 | – | – | – | < 0.05 | < 0.05 | < 0.05 | – | ≥ 0.25 |
| C=C(CN1CCN(C)CC1)C(=O)Nc1ccc(OC)c(Nc2ncc(Cl)c(Nc3ccccc3P(C)(C)=O)n2)c1 [Example 49, N-(3-((5-chloro-4-((2-(dimethylphosphoryl)phenyl)amino)pyrimidin-2-yl)amino)-4-methoxyphenyl)-2-((4-methylpiperazin-1-yl)methyl)acrylamide] | < 0.05 | < 0.05 | < 0.05 | < 0.05 | < 0.05 | – | – | – | ≥ 0.25 | – |
| C=CC(=O)Nc1ccc(OCCN(C)C)c(Nc2ncc(Cl)c(Nc3ccccc3P(C)(C)=O)n2)c1 [Example 117, N-(3-((5-chloro-4-((2-(dimethylphosphoryl)phenyl)amino)pyrimidin-2-yl)amino)-4-(2-(dimethylamino)ethoxy)phenyl)acrylamide] | ≥ 0.25 | ≥ 0.25 | – | – | – | ≥ 0.25 | ≥ 0.25 | ≥ 0.25 | – | ≥ 0.25 |
| C=CC(=O)Nc1ccc(OC2COC2)c(Nc2ncc(Cl)c(Nc3ccccc3P(C)(C)=O)n2)c1 [Example 138, N-(3-((5-chloro-4-((2-(dimethylphosphoryl)phenyl)amino)pyrimidin-2-yl)amino)-4-(oxetan-3-yloxy)phenyl)acrylamide] | ≥ 0.25 | ≥ 0.25 | – | – | – | ≥ 0.25 | ≥ 0.25 | ≥ 0.25 | – | ≥ 0.25 |
| COc1ccc(NC(=O)CCl)cc1Nc1ncc(C)c(Nc2ccccc2P(C)(C)=O)n1 [Example 141, 2-chloro-N-(3-((4-((2-(dimethylphosphoryl)phenyl)amino)-5-methylpyrimidin-2-yl)amino)-4-methoxyphenyl)acetamide] | < 0.05 | < 0.05 | – | – | – | < 0.05 | < 0.05 | < 0.05 | – | ≥ 0.25 |
| COc1ccc(NC(=O)/C=C/CN2CCCC2)cc1Nc1ncc(Cl)c(Nc2ccccc2P(C)(C)=O)n1 [Example 95, (E)—N-(3-((5-chloro-4-((2-(dimethylphosphoryl)phenyl)amino)pyrimidin-2-yl)amino)-4-methoxyphenyl)-4-(pyrrolidin-1-yl)but-2-enamide] | 0.05 to 0.1 | ≥ 0.25 | ≥ 0.25 | < 0.05 | < 0.05 | – | – | – | ≥ 0.25 | – |
| COc1cc(F)c(NC(=O)/C=C/Cl)cc1Nc1ncc(Cl)c(Nc2ccccc2P(C)(C)=O)n1 [Example 85, (E)-3-chloro-N-(5-((5-chloro-4-((2-(dimethylphosphoryl)phenyl)amino)pyrimidin-2-yl)amino)-2-fluoro-4-methoxyphenyl)acrylamide] | < 0.05 | < 0.05 | < 0.05 | < 0.05 | < 0.05 | – | – | – | ≥ 0.25 | – |
| C=CC(=O)Nc1cc(Nc2ncc(Cl)c(Nc3ccccc3P(C)(C)=O)n2)c(OC)cc1N(C)CCN(C)CCF [Example 67, N-(5-((5-chloro-4-((2-(dimethylphosphoryl)phenyl)amino)pyrimidin-2-yl)amino)-2-((2-((2-fluoroethyl)(methyl)amino)ethyl)(methyl)amino)-4-methoxyphenyl)acrylamide] | < 0.05 | < 0.05 | < 0.05 | < 0.05 | < 0.05 | – | – | – | ≥ 0.25 | – |
